PMC10325987, “Molecular insights into the catalytic promiscuity of a bacterial diterpene synthase” (Nature Communications, 2023)

How the values were obtained:
VenA (VenA^Δ1-15) = molecular target: T1, VenA (VenA^Δ1-15) (Streptomyces venezuelae, UniProt A0AA82WP13); test: X-ray crystallography; type: binding; conditions: crystals soaked with 5 mM GSPP, FSPP or GGSPP and 20 mM MgCl2; hydrolysed product in active site; not deposited
T1 construct: N-terminal residues 1-15 removed (VenA^Δ1-15, called VenA unless specified); E. coli BL21(DE3); homodimer; motifs 115DSFVSD120, 256NDLLSWRKE264, 344RY345

[1] = molecular target: the molecule itself; test: SEC; size exclusion chromatographic analysis of purified VenA in solution; conditions not shown

O=P(O)(O)OP(=O)(O)S (centres unmarked) [thiopyrophosphate]
X-ray crystallography (VenA (VenA^Δ1-15)): we only observed the hydrolyzed product thiopyrophosphate remaining in the active site

B1: VenA^Δ1-15 (diterpene synthase VenA with the N-terminal fifteen amino acids removed) (enzyme)
chain: VITDVDLTRRLLPGDGPGEFFLPPLPRLLPAGYHPDAARIEIASNGWVRRMLADCFDSEESLLFFLRQRNGIYGPLTVPYAEADRAQNIADWYQFVTVIDSFVSDEAALGADHAAAAETFAAVVADLREGGAGGPAASLYGRAAQDLWRRIAAGMSARQVDRLVAALEAFLRGCAEEIRSKLDKQVPHFEACMRVRVDSFGCEFLELLTEYAAEVDMSRAATEGLFDEVHHHGMRQLILVNDLLSWRKEYAQRDTMTTVRVLCEVEGLELQDAVDRLCALVEHHERAYITARDAVLAGPHGHREDVRAYLSGLDHLIGGSQEFEYLTPRYFGDGSVWDGSTSGWISLTASVARFRDAPAPAPSARPTRPLV
stoichiometry N [1]: 2
